Data published in patent US20140205660A1, “Abscisic acid against cancer” (priority 2013, published 2014).
Where two headings read alike, the source gives them in different places.

Tests used:
[1] = 50 mg/ml, Sigma-Aldrich material; cited from earlier work
leaf discs of V. Faba = details: cited from earlier work
[2] = can rearrange to PA; cited from earlier work
cancer cell lines = details: HELA, DU 145, HCT115, K562, C1498, HL-60, SMMC-7721, Tca8113; cited from earlier work
DU-145 (prostate cancer) = details: DU-145 tumor cells; cited from earlier work
[3] = tested on: C1498 transplanted tumor with myeloid leukemia; assay: Survival of C57BL/6J mice with C1498 transplanted tumor (Livingston); type: in vivo; details: for survival: oral
Excerpt: For determination of cancer survival rate, she used C57BL/6J mice and C1498 transplanted tumor with myeloid leukemia purchased from the Jackson Laboratory in Maine. This type of cancer was lethal in mice in 10-15 days. ABA furnished by Hoffmann-Laroche was suspended in saline and administered as suspension. Groups of 10 mice were used for treatment for a total of 7 days.

[4] = tested on: HELA, DU145, HCT116 AND K562; details: cited from earlier work
[5] = tested on: C1498 transplanted tumor with myeloid leukemia; details: groups of 10 mice, 7 days treatment, cited from earlier work
TCA8113 cells = details: cited from earlier work
stomata opening = details: 10 mcM ABA extracellular, cited from earlier work
[6] = tested on: HL-60 (promyelocytic leukemia); details: HL-60 tumor cells; cited from earlier work
Lemna gibba G1 = details: cited from earlier work
cancer = details: 62 human cases, digestive ABA plus six vaccines, inconclusive cases not considered; cited from earlier work
nuclear protein Ki67 = details: proliferating tumor cells; cited from earlier work

In the case of `CC1=CC(=O)CC(C)(C)C1(O)/C=C/C(C)=C\C(=O)O` (racemic) [(+/−)-Abscisic acid], the “appearance of solution in ethanol” value [1] is listed as “clear to slightly hazy”.

For `CC1=CC(=O)CC(C)(C)C1(O)/C=C/C(C)=C\C(=O)O` (racemic) [racemic ABA, reference compound], the half-life (leaf discs of V. Faba) is listed as 30 to 32 h.

In the case of `CC(C=CC1(O)C(C)=CC(=O)CC1(C)CO)=CC(=O)O` (centres unmarked) [Metabolite C, 6′-hydroxy methyl ABA], the stability [2] is listed as “extremely unstable”.

In the case of “[S-(Z,E)]-5-(1-Hydroxy-2,6,6-trimethyl-4-oxo-2-cyclohexen-1-yl)-3-methyl-2,4-pentadienoic acid [ABA]”, the half-life (leaf discs of V. Faba) is given as 6 to 8 h, the “effect against cancer cell lines” value (cancer cell lines) is given as “severe effect” and the “changes in morphology of cancer cells” value (DU-145 (prostate cancer)) is given as “growth in poor condition and nuclear pycnosis”. For the same molecule, the survivors ([3]; group II, 1 mg/kg) was 90%, the survival ([3]; 10 mg/kg) was 60% and the survival ([3]; 100 mg/kg) was 90%. The “effects in four human cancer cell lines” value [4] was “caused a tumor growth reduction, reduced cell proliferation rate, changed cell cycle progression, and produced induction of apoptosis”, the “rate of survival at the end of 14 days” value ([5]; ABA 1 mg/kg i.p.) was 9 survivors and the “rate of survival at the end of 14 days” value ([5]; ABA 10 mg/kg i.p.) was 10 survivors. For the same molecule, the “rate of survival at the end of 14 days” value ([5]; ABA 10 mg/kg oral) was 6 survivors, the “rate of survival at the end of 14 days” value ([5]; ABA 100 mg/kg oral) was 9 survivors and the Involucrin protein expression (TCA8113 cells; differentiation of TCA8113 affected by ABA) was “expressed”. The “retinoic acid receptor beta (RARBETA) expression” value (TCA8113 cells; under treatment with ABA) was “expressed and not silenced”, the “inhibition of stomata opening” value (stomata opening; pH 6.15) was 98% and the “inhibition of stomata opening” value (stomata opening; pH 8.0) was 57%. For the same molecule, the “changes in morphology of cancer cells” value [6] was “absence of tumor cell nuclear membrane microvillus and presentation of typical apoptosis characteristics”, the “potential increase in average” value (Lemna gibba G1; 10-100 mcm ABA) was 85 mV and the “EPD after ABA treatment” value (Lemna gibba G1; after 15 hours ABA treatment, from −109 mV) was −194 mV. For the same molecule, the success rate (cancer) was “around 82%” and the “nuclear protein Ki67 expression” value (nuclear protein Ki67) was “reduced”.
